According to ChEMBL document CHEMBL4680312 (Bioorg Med Chem, 2021):
Active and inactive are the calls of the source. The rule behind the calls is not given here.

How the values were obtained:
Format in all cases: cell-based
Histamine H4 receptor [1] = target: T1, Histamine H4 receptor (Homo sapiens, UniProt Q9H3N8); experiment: Displacement of [3H]-Histamine from human histamine 4 receptor transfected in HEK293T cells incubated for 16 hrs by liquid scintillation counter analysis
Histamine H3 receptor [2] = target: T2, Histamine H3 receptor (Homo sapiens, UniProt Q9Y5N1); experiment: Displacement of [3H]-Histamine from human histamine 3 receptor transfected in HEK293T cells incubated for 16 hrs by liquid scintillation counter analysis
T2 sequence (Q9Y5N1 whole entry): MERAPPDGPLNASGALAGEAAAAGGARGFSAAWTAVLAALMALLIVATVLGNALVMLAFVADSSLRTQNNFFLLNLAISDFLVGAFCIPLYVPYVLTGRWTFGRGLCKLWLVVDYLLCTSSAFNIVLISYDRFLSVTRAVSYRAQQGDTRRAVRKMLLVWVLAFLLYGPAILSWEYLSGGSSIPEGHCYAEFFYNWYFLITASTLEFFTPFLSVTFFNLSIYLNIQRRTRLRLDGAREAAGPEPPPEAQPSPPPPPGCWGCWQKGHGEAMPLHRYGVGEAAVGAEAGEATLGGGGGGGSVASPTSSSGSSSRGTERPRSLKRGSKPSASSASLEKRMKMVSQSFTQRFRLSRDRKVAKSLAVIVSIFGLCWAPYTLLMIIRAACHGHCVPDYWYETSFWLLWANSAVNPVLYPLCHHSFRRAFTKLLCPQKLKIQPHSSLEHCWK

Histamine H4 receptor [3] = target: T1, Histamine H4 receptor; experiment: Antagonist activity at human histamine 4 receptor transfected in human HEK293T cells assessed as reduction in histamine-induced activity at 10 uM incubated for 30 mins followed by histamine stimulation and measured immediately by BRET assay; settings: filed as antagonist
Histamine H4 receptor [4] = target: T1, Histamine H4 receptor; experiment: Activation of human histamine 4 receptor transfected in human HEK293T cells measured after 5 mins by BRET assay; settings: filed as partial agonist, dose 0.01-10 µM
Histamine H3 receptor [5] = target: T2, Histamine H3 receptor; experiment: Activation of human histamine 3 receptor transfected in human HEK293T cells at 10 uM measured after 5 mins by BRET assay
Histamine H3 receptor [6] = target: T2, Histamine H3 receptor; experiment: Antagonist activity at human histamine 3 receptor transfected in human HEK293T cells assessed as reduction in histamine-induced activity at 10 uM incubated for 30 mins followed by histamine stimulation and measured immediately by BRET assay

T1 sequence (Q9H3N8 whole entry): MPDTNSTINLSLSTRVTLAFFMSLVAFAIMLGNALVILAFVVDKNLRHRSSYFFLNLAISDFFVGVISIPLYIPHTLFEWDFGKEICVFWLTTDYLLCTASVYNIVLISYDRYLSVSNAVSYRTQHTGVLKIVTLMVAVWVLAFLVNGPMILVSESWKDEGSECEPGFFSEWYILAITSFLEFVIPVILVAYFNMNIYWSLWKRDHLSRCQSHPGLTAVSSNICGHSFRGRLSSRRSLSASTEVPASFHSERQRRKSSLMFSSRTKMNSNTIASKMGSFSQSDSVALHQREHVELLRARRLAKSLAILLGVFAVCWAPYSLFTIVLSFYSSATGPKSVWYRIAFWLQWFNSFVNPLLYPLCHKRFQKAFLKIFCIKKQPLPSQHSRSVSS

Row | Compound | Ki (Histamine H4 receptor [1]) [µM] | Ki (Histamine H3 receptor [2]) [µM] | Activity (Histamine H4 receptor [3]) | Activity (Histamine H4 receptor [4]) | Activity (Histamine H3 receptor [5]) | Activity (Histamine H3 receptor [6]) | Activity (Histamine H3 receptor [6]; filed as antagonist)
1 | CN1CCN(CC2Cc3cc(Cl)ccc3O2)CC1 (stereo unspecified) | 0.794 | 0.794 |  |  |  |  | 
2 | CN1CCN(C(=O)c2cc3ccccc3o2)CC1 | 0.0794 | > 10 | Active | Dose-dependent effect |  |  | 
3 | CN1CCN(Cc2cc3ccccc3o2)CC1 | > 10 | > 10 |  |  |  |  | 
4 | c1ccc(-c2ccc3c(c2)CC(CN2CCNCC2)O3)cc1 (stereo unspecified) | > 10 | 0.631 |  |  | inactive | inactive | 
5 | COc1ccc2c(c1)CC(CN1CCN(C)CC1)O2 (stereo unspecified) | > 10 | 0.794 |  |  |  |  | 
6 | C=CCN1CCN(CC2Cc3cc(-c4ccccc4)ccc3O2)CC1 (stereo unspecified) | > 10 | 0.00398 |  |  | inactive |  | Active
7 | C=CCN1CCN(CC2Cc3ccccc3O2)CC1 (stereo unspecified) | > 10 |  |  |  |  |  | 
8 | c1ccc(-c2ccc3c(c2)CC(CN2CCN(c4ccccc4)CC2)O3)cc1 (stereo unspecified) | > 10 | > 10 |  |  |  |  | 
9 | CN1CCN(C(=O)c2nc3ccc(Cl)cc3[nH]2)CC1 |  |  | Active |  |  |  | 
10 | CC(C)(C)c1ccc2c(c1)CC(CN1CCN(c3ccccc3)CC1)O2 (stereo unspecified) | > 10 | > 10 |  |  | inactive | inactive | 
11 | C=CCN1CCN(CC2Cc3cc(C(C)(C)C)ccc3O2)CC1 (stereo unspecified) | > 10 | 0.0158 |  |  | inactive |  | Active
12 | CN1CCN(CC2Cc3cc(C(C)(C)C)ccc3O2)CC1 (stereo unspecified) | > 10 | 0.794 |  |  |  |  | 
13 | CN1CCN(Cc2ccc3c(c2)CCO3)CC1 | > 10 | > 10 |  |  |  |  | 
14 | CN1CCN(CC2Cc3cc(-c4ccccc4)ccc3O2)CC1 (stereo unspecified) | > 10 | 0.0398 |  |  | inactive |  | Active
15 | C=CCN1CCN(CC2Cc3cc(OC)ccc3O2)CC1 (stereo unspecified) | > 10 | 0.00631 |  |  | inactive |  | Active
16 | O=C(c1cc2ccccc2o1)N1CCN(c2ccccc2)CC1 | > 10 | > 10 |  |  |  |  | 
17 | c1ccc(CN2CCN(CC3Cc4ccccc4O3)CC2)cc1 (stereo unspecified) | > 10 | > 10 |  |  |  |  | 
